Target: FLT3 receptor tyrosine kinase (Homo sapiens) (UniProt P36888)
Experiment: Inhibition of Flt3

Chain of FLT3 receptor tyrosine kinase (Homo sapiens) (P36888 whole entry, looked up): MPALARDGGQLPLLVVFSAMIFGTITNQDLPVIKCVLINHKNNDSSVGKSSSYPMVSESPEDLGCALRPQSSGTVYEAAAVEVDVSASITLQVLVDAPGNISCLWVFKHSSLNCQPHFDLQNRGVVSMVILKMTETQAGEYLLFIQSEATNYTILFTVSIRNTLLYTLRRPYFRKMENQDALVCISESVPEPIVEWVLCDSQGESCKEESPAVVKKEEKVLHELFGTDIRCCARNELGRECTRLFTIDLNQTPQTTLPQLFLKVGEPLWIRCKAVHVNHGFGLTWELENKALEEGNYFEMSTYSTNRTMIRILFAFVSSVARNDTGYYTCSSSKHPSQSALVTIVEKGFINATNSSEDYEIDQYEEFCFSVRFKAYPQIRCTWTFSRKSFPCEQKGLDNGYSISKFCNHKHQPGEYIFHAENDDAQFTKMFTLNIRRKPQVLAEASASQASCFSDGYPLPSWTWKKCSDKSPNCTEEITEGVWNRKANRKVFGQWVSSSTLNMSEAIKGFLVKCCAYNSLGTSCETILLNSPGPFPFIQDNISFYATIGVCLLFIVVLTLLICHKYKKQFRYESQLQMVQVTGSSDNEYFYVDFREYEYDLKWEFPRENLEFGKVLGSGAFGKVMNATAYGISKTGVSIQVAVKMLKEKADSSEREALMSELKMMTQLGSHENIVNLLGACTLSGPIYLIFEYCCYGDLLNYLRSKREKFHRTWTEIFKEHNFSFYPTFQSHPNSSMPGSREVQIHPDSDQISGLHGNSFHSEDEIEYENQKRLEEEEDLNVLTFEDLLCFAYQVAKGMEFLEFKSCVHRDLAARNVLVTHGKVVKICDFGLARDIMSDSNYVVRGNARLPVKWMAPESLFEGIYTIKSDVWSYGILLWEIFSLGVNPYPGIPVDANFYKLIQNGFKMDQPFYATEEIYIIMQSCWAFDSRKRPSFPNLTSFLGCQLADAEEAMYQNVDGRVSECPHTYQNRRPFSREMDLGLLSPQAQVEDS

IC50: > 1000 nM
Compound: Cc1cccc(C)c1/C=C/n1cnc2c(Nc3ccc(P(C)(C)=O)cc3)ncnc21 [AP24149]
